From patent US20130273207A1, “Calcium Fortifying Composition for Strength, a Hydration Supplement, and Process for Preparing the Same” (priority 2010, published 2013)
Where two headings read alike, the source gives them in different places.

How the values were obtained:
[1] = cited from earlier work
[2] = cited from earlier work; for % bioavailability of Ca out of inorganic Ca: consumption 1000 mg of product; for Bioavailability (in words): human and animal studies
[3] = Calcium available to human body (bioavailability) from Ca products; details: consumption 1000 mg of product
Description: Bioavailability of Calcium Lactate Gluconate: the effectiveness of the nutrient depends on its bioavailability, which means how well the human body absorbs and utilizes it for various functions occurring in the body. On an average, about 10 to 30% of the total calcium is only get absorbed from a mixed diet by healthy adults. Many different factors influence this level of availability, one being the type of salt providing calcium. […] Calcium Lactate Gluconate is primarily used in applications where solubility and clarity are important.

[4] = test system: women; details: over 4,000 women, calcium in drinking water; cited from earlier work
[5] = Solubility in water; details: RDA of calcium equals 800 mg per day in the EU
[6] = cited from earlier work; remark: listed apart in the source

[Cu] [Copper]
Safe Intake level ([1]; in vivo): 10 mg | safe upper limit ([1]; in vivo): limit of 10 mg/day in a 60 kg adult

O=C([O-])CC(O)(CC(=O)[O-])C(=O)[O-].O=C([O-])CC(O)(CC(=O)[O-])C(=O)[O-].[Ca+2].[Ca+2].[Ca+2] [Ca Citrate]
% bioavailability of Ca out of inorganic Ca [2]: 50%

calcium phosphate [Ca Phosphate]
Total Ca absorbed by the body [3]: 39 mg | % bioavailability of Ca out of inorganic Ca [2]: 10%

[Ca+2] [Calcium]
bone density [4]: associated with an increase in their bone density | total calcium absorbed from a mixed diet ([2]; healthy adults, on an average): 10 to 30% | Validation: risk of toxicity (in words) ([1]; 60 mg per liter): No risk of toxicity | Safe Intake level ([1]; Source: Expert group of vitamins & Minerals, UK - 2003): 1500 mg | doses that might induce some gastrointestinal side effects in some individuals ([1]; human trials): indicate that higher doses (of 2500 mg | supplemental Ca with no adverse effect ([1]; in vivo): 1500 mg per day

O=C([O-])[O-].[Ca+2] [Ca Carbonate, calcium carbonate]
Total Ca absorbed by the body [3]: 40 mg | % bioavailability of Ca out of inorganic Ca [2]: 10%

[Ca+2] [Ionic Ca (Ca^++), Ionic Ca]
% bioavailability of Ca out of inorganic Ca [2]: 100%

CC(O)C(=O)[O-].O=C([O-])[C@H](O)[C@@H](O)[C@H](O)[C@H](O)CO.[Ca+2] [CLG, Calcium Lactate Gluconate]
Total Ca absorbed by the body (mg) [3]: Max. | % bioavailability of Ca out of inorganic Ca [2]: High* | Bioavailability (in words) [2]: highly bioavailable | Bioavailability (in words) ([2]; listed as Ca lactate gluconate): Excellent bioavailability. (maintains that solubility during transit through the small intestine, during which time it is exposed to passive diffusion sites, therefore maximizing Ca absorption). | % of RDA in 100 ml [5]: 650% | Solubility (in words) [6]: High solubility (the most soluble forms of organic Ca) | Solubility [g Ca/L water] ([6]; water): 52 g Ca/L water | Solubility [g/L water] ([6]; water): 400 g/L water | Solubility [g/L water] ([6]; water, listed as Calcium Lactate Gluconate): approx. 400 g/L water

CC(O)C(=O)[O-].CC(O)C(=O)[O-].[Ca+2] (stereo not shown) [calcium lactate]
Total Ca absorbed by the body [3]: 122 mg | % bioavailability of Ca out of inorganic Ca [2]: 33%
